Assay [1] relates to Streptococcus pneumoniae. Kind of assay: Antibacterial activity against 1.5 x 10^7 CFU Streptococcus pneumoniae serotype 2 infected in semitherapeutic C57BL/6 mouse model assessed as reduction of bacteremia at 20 mg/kg, ip measured after 2 days post infection. The assay is classed as functional, organism-based. Details: dose 20 mg/kg.
Assay [2] deals with Streptococcus pneumoniae. The experiment in a line: Antibacterial activity against high dose 1.5 x 10^7 CFU Streptococcus pneumoniae serotype 2 infected in therapeutic C57BL/6 mouse model assessed as reduction of bacteremia at 20 mg/kg, ip measured after 4 days post infection. Details: dose 20 mg/kg. The format is functional, organism-based.
Assay [3] deals with Streptococcus pneumoniae. Kind of assay: Antibacterial activity against 1.5 x 10^7 CFU Streptococcus pneumoniae serotype 19 infected in therapeutic C57BL/6 mouse model assessed as survival rate at 20 mg/kg, ip qd beginning at time of infection measured after 6 days post infection. The assay is classed as functional. To be noted: route intraperitoneal.
In assay [4] the test system is Streptococcus pneumoniae. Kind of assay: Antibacterial activity against high dose 1.5 x 10^7 CFU Streptococcus pneumoniae serotype 2 infected in therapeutic C57BL/6 mouse model assessed as bacterial count in lung at 20 mg/kg, ip measured after 3 days post infection. The assay is classed as functional. To be noted: route intraperitoneal.
The test system of assay [5] is Streptococcus pneumoniae. The experiment in a line: Antibacterial activity against high dose 1.5 x 10^7 CFU Streptococcus pneumoniae serotype 2 infected in therapeutic C57BL/6 mouse model assessed as bacterial count in blood at 20 mg/kg, ip measured after 3 days post infection. The assay is classed as functional. To be noted: route intraperitoneal.
Assay [6] concerns Streptococcus pneumoniae. Kind of assay: Antibacterial activity against high dose 1.5 x 10^7 CFU Streptococcus pneumoniae serotype 19 infected in semitherapeutic C57BL/6 mouse model assessed as reduction of bacteremia at 20 mg/kg, ip measured after 2 days post infection. Set-up: dose 20 mg/kg. The assay is classed as functional, organism-based.
Assay [7] relates to Streptococcus pneumoniae. Kind of assay: Antibacterial activity against high dose 1.5 x 10^7 CFU Streptococcus pneumoniae serotype 19 infected in semitherapeutic C57BL/6 mouse model assessed as reduction of bacteremia at 20 mg/kg, ip measured after 1 day post infection. The format is functional, organism-based. Details: dose 20 mg/kg.
Assay [8] deals with Streptococcus pneumoniae. Kind of assay: Antibacterial activity against 1.5 x 10^7 CFU Streptococcus pneumoniae serotype 2 infected in semitherapeutic C57BL/6 mouse model assessed as reduction of bacteremia at 20 mg/kg, ip measured after 1 day post infection. The format is functional, organism-based. Set-up: dose 20 mg/kg.
For assay [9], the system named is Streptococcus pneumoniae. Kind of assay: Antibacterial activity against high dose 1.5 x 10^7 CFU Streptococcus pneumoniae serotype 19 infected in semitherapeutic C57BL/6 mouse model assessed as bacterial count in lung at 20 mg/kg, ip measured after 1 day post infection. To be noted: route intraperitoneal. The assay is classed as functional.
Assay [10] concerns Streptococcus pneumoniae. The experiment in a line: Antibacterial activity against high dose 1.5 x 10^7 CFU Streptococcus pneumoniae serotype 2 infected in semitherapeutic C57BL/6 mouse model assessed as bacterial count in lung at 20 mg/kg, ip measured after 1 day post infection. The format is functional. To be noted: route intraperitoneal.

Active and inactive are the calls of the source. The calls are words filed in the database; no cut-off is given here.

With `CO/N=C(\C(=O)N[C@@H]1C(=O)N2C(C(=O)O)=C(CSc3nc(=O)c(O)nn3C)CS[C@H]12)c1csc(N)n1` [CEFTRIAXONE], the outcome in assay [1], in [2], in assay [6], in assay [7] and in assay [8] was Active. Further, the Activity in assay [3] turned out to be 100%. Also, the log10cfu in assay [4] stood at 4.6; in [5] it was 3.3; in assay [9] it was 0.5; in assay [10], 0.8.

For the origin of these results see ChEMBL document CHEMBL1240356, “Efficacy profiles of daptomycin for treatment of invasive and noninvasive pulmonary infections with Streptococcus pneumoniae” (2010).
